Reference: the supplement of paper PMC11616607

Experiments:
Test in all cases: drug sensitivity score (DSS) from 5-point dose-response viability curve (DSS (area-under-curve based score)); higher = more sensitive (stronger growth inhibition or killing); extreme values may be limits of the assay
Conditions in all cases: exposure time: 72 h; concentration range: 5 concentrations over 10,000-fold range
COV362 = tested on: COV362
How it was run: (§1)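 Ovarian cancer and normal ovarian cell lines were tested in 384-well plates. Drugs were acoustically dispensed (Echo 550) in DMSO or water at five concentrations spanning a 10,000-fold range, then 1,500 cells per well were added and incubated 3 days at 37°C, 5% CO2. Viability was read by CellTiter-Glo luminescence on a PHERAstar FS. Drug sensitivity score was derived per cell line and drug with Breeze software; higher means more sensitive, zero means no response.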

OVCAR8 = tested on: OVCAR8
How it was run: as §1

OVCAR5 = tested on: OVCAR5
How it was run: as §1

COV318 = tested on: COV318
How it was run: as §1

Kuramochi = tested on: Kuramochi
How it was run: as §1

OV90 = tested on: OV90
How it was run: as §1

JHOS2 = tested on: JHOS2
How it was run: as §1

CAOV3 = tested on: CAOV3
How it was run: as §1

Ovsaho = tested on: Ovsaho
How it was run: as §1

HOSE1C = tested on: HOSE1C
How it was run: as §1

OVCAR4 = tested on: OVCAR4
How it was run: as §1

HOSE2C = tested on: HOSE2C
How it was run: as §1

| Structure (SMILES) | drug sensitivity score (COV362) | drug sensitivity score (OVCAR8) | drug sensitivity score (OVCAR5) | drug sensitivity score (COV318) | drug sensitivity score (Kuramochi) | drug sensitivity score (OV90) | drug sensitivity score (JHOS2) | drug sensitivity score (CAOV3) | drug sensitivity score (Ovsaho) | drug sensitivity score (HOSE1C) | drug sensitivity score (OVCAR4) | drug sensitivity score (HOSE2C) |
| --- | --- | --- | --- | --- | --- | --- | --- | --- | --- | --- | --- | --- |
| CC[C@@H]1C(=O)OC[C@@H]1Cc1cncn1C [Pilocarpine] | 0 | 0 | 0 | 0 | 0 | 0 | 0.5 | 0 | 0 | 0 | 0 | 0 |
| CC(C)N(C[C@H]1O[C@@H](n2cnc3c(N)ncnc32)[C@H](O)[C@@H]1O)[C@H]1C[C@@H](CCc2nc3cc(C(C)(C)C)ccc3[nH]2)C1 [Pinometostat] | 0 | 0 | 0 | 0 | 0 | 0 | 0 | 0 | 0 | 0 | 0 | 0 |
| Cc1ccc(=O)n(-c2ccccc2)c1 [Pirfenidone] | 0 | 0 | 0 | 0 | 0 | 0 | 0 | 0 | 0 | 0 | 0 | 0 |
| NCCNc1ccc(NCCN)c2c1C(=O)c1ccncc1C2=O [Pixantrone] | 0 | 0.4 | 0 | 0 | 0.1 | 0.1 | 0 | 0 | 0.3 | 0 | 0 | 0 |
| c1cc(CN2CCCNCCNCCCNCC2)ccc1CN1CCCNCCNCCCNCC1 [Plerixafor] | 0 | 0 | 0 | 0 | 0 | 0 | 0 | 0 | 0 | 0 | 0 | 0 |
| CO[C@H](C(=O)[C@@H](O)[C@@H](C)O)[C@@H]1Cc2cc3cc(O[C@H]4C[C@@H](O[C@@H]5C[C@@H](O)[C@H](O)[C@@H](C)O5)[C@H](O)[C@@H](C)O4)c(C)c(O)c3c(O)c2C(=O)[C@H]1O[C@H]1C[C@@H](O[C@@H]2C[C@@H](O)[C@@H](O[C@@H]3C[C@](C)(O)[C@H](O)[C@@H](C)O3)[C@@H](C)O2)[C@H](O)[C@@H](C)O1 [Plicamycin] | 2.9 | 19.4 | 16.5 | 0 | 0 | 19.1 | 0 | 8.8 | 0.1 | 0 | 5.7 | 0 |
| Nc1cccc2c1C(=O)N(C1CCC(=O)NC1=O)C2=O (stereo not drawn) [Pomalidomide] | 0 | 0 | 0 | 0 | 0 | 0 | 0 | 0 | 0 | 0 | 0 | 0 |
| Cc1ccc(C(=O)Nc2ccc(CN3CCN(C)CC3)c(C(F)(F)F)c2)cc1C#Cc1cnc2cccnn12 [Ponatinib] | 4.9 | 3.3 | 5.5 | 5.7 | 9.3 | 6.9 | 3.6 | 2.4 | 7.6 | 3.3 | 5.7 | 8.5 |
| C=CC(=O)N1CCC(Oc2cc3c(Nc4ccc(Cl)c(Cl)c4F)ncnc3cc2OC)CC1 [Poziotinib] | 0 | 0 | 3.3 | 0 | 1.9 | 0 | 0.4 | 13.1 | 4.5 | 0.4 | 1.3 | 0 |
| CCCCc1nc2cc(/C=C/C(=O)NO)ccc2n1CCN(CC)CC [Pracinostat] | 5.1 | 19.5 | 20.9 | 10 | 13.5 | 14.6 | 13 | 13.2 | 10.5 | 22.2 | 10.4 | 18.5 |
| CC[C@H](C)C(=O)O[C@H]1C[C@H](O)C=C2C=C[C@H](C)[C@H](CC[C@@H](O)C[C@@H](O)CC(=O)O)[C@H]21 [Pravastatin] | 0 | 0 | 0 | 0 | 0 | 0 | 0 | 0 | 0 | 0 | 0 | 0 |
| C[C@]12C=CC(=O)C=C1CC[C@@H]1[C@@H]2[C@@H](O)C[C@@]2(C)[C@H]1CC[C@]2(O)C(=O)CO [Prednisolone] | 0 | 0.1 | 0 | 1.1 | 0 | 0.1 | 0.1 | 0 | 0 | 0 | 0 | 3.3 |
| COc1cccc(OCCCN)c1-c1cc(Nc2cnc(C#N)cn2)n[nH]1 [Prexasertib] | 16.8 | 30.1 | 25 | 22.9 | 19.8 | 16.7 | 22.4 | 24.8 | 16.1 | 40.9 | 21.8 | 36.7 |
| Cn1cc(CNCC2CCN(c3ncc(C(=O)NO)cn3)CC2)c2ccccc21 [Quisinostat] | 4.5 | 18.6 | 19.2 | 4.7 | 9.2 | 14.6 | 8.1 | 11.5 | 9 | 22.9 | 8 | 19 |
| CC(C)(C)c1cc(NC(=O)Nc2ccc(-c3cn4c(n3)sc3cc(OCCN5CCOCC5)ccc34)cc2)no1 [Quizartinib] | 0 | 2.2 | 0.8 | 0 | 0 | 0.2 | 0 | 0 | 0.2 | 0 | 1.5 | 0.8 |
| Nc1cc(F)ccc1NC(=O)/C=C/c1cnn(C/C=C/c2ccccc2)c1 [RGFP966] | 0 | 2.3 | 3.3 | 0.6 | 0.4 | 1.9 | 0.1 | 0.1 | 0 | 1.1 | 2.4 | 2.4 |
| COC(=O)c1ccc([C@H]2c3[nH]c4ccccc4c3C[C@H](C(=O)OC)N2C(=O)CCl)cc1 [RSL3] | 0 | 0 | 3.1 | 0 | 0 | 0 | 0 | 0 | 0 | 14.5 | 0 | 25.4 |
| Cc1cnc(NC(=O)Nc2cc(Br)c(C)cc2OC[C@@H]2CNCCO2)cn1 [Rabusertib] | 0.2 | 0 | 0.1 | 0.2 | 0.1 | 1.6 | 0 | 0.1 | 0 | 1.8 | 1 | 2 |
| Cc1cn(-c2cc(NC(=O)c3ccc(C)c(Nc4nccc(-c5cnccn5)n4)c3)cc(C(F)(F)F)c2)cn1 [Radotinib] | 0 | 0 | 0 | 0 | 0.9 | 1.3 | 0 | 0 | 0 | 0 | 0 | 0 |
| CC(C)(C)Cn1c(N)nc2ccc(-c3[nH]c(C(C)(C)C)nc3-c3ccc(F)cc3)nc21 [Ralimetinib] | 1.4 | 3.1 | 4.3 | 2.6 | 6.6 | 4.1 | 1.8 | 2.9 | 1.8 | 1.1 | 1.1 | 0.5 |
| O=C(c1ccc(OCCN2CCCCC2)cc1)c1c(-c2ccc(O)cc2)sc2cc(O)ccc12 [Raloxifene] | 1.2 | 1.5 | 2 | 1.8 | 2.6 | 1.9 | 1 | 0.5 | 3.3 | 0 | 0.3 | 0 |
| Cc1nc(=O)c2cc(CN(C)c3ccc(C(=O)N[C@@H](CCC(=O)O)C(=O)O)s3)ccc2[nH]1 [Raltitrexed] | 6 | 18.4 | 6.3 | 3 | 9.1 | 6.1 | 4.2 | 10.7 | 5.7 | 21.8 | 6.4 | 20.3 |
| Cn1nccc1Nc1nccc(-c2ccn([C@H](CO)c3ccc(Cl)c(F)c3)c(=O)c2)n1 [Ravoxertinib] | 0.2 | 6.9 | 8.8 | 0 | 4.8 | 13.6 | 3.7 | 6 | 4.7 | 0 | 0.8 | 0 |
| CNC(=O)c1cc(Oc2ccc(NC(=O)Nc3ccc(Cl)c(C(F)(F)F)c3)c(F)c2)ccn1 [Regorafenib] | 0.6 | 4.1 | 4.4 | 0.6 | 1.2 | 7.9 | 1.3 | 2 | 2 | 1.6 | 1.6 | 2.7 |
| CCOC(=O)C1=CCCC[C@H]1S(=O)(=O)Nc1ccc(F)cc1Cl [Resatorvid] | 0 | 0 | 0 | 0 | 0 | 0 | 0 | 0 | 0 | 0 | 0 | 0 |
| CCOCc1nc2c(N)nc3ccccc3c2n1CC(C)(C)O [Resiquimod] | 0 | 0 | 0.3 | 0 | 1.2 | 0 | 0.6 | 0 | 0.3 | 0 | 0.3 | 0 |
| CN(C)Cc1ccc(S(=O)(=O)n2ccc(/C=C/C(=O)NO)c2)cc1 [Resminostat] | 2.9 | 11.8 | 12.3 | 4.8 | 5.8 | 9.7 | 5.3 | 8.2 | 3.6 | 19.3 | 3.2 | 12 |
| CN(C)C(=O)c1cc2cnc(Nc3ccc(N4CCNCC4)cn3)nc2n1C1CCCC1 [Ribociclib] | 0 | 0 | 2.3 | 0.2 | 0 | 0.6 | 2.9 | 0 | 0 | 0 | 0.6 | 0 |
| CO[C@H]1C[C@@H]2CC[C@@H](C)[C@@](O)(O2)C(=O)C(=O)N2CCCC[C@H]2C(=O)O[C@H]([C@H](C)C[C@@H]2CC[C@@H](OP(C)(C)=O)[C@H](OC)C2)CC(=O)[C@H](C)/C=C(\C)[C@@H](O)[C@@H](OC)C(=O)[C@H](C)C[C@H](C)/C=C/C=C/C=C/1C [Ridaforolimus] | 0 | 6.8 | 4.6 | 0.6 | 3.2 | 10.3 | 4.3 | 8.7 | 4.6 | 2.3 | 2.6 | 1 |
